# From PMC10817917, “Alkyl deoxyglycoside-polymyxin combinations against critical priority carbapenem-resistant gram-negative bacteria” (Scientific Reports, 2024)
# Like-named read-outs stand apart in the source and are kept apart here.
# Assays:
# [1] = test system: E. coli ATCC 25922; experiment: Broth microdilution MIC/MBC, glycosides with or without polymyxins; format: cell-based, Escherichia coli; details: for MIC: Escherichia coli, ATCC25922
# [2] = test system: E. coli NCTC 13846; experiment: as above; format: cell-based, Escherichia coli; details: strain B
# [3] = test system: K. pneumoniae CQ4921; experiment: as above; format: cell-based, Klebsiella pneumoniae; details: for MIC: Klebsiella pneumoniae, CQ4921
# [4] = test system: E. cloacae CQ1941; experiment: as above; format: cell-based; details: for MIC: Enterobacter cloacae, CQ1941
# [5] = test system: K. pneumoniae CQ1942; experiment: Broth microdilution MIC, glycosides with or without polymyxins; format: cell-based, Klebsiella pneumoniae; details: for MIC: Klebsiella pneumoniae, CQ1942
# [6] = test system: K. pneumoniae CQ1947; experiment: as above; format: cell-based, Klebsiella pneumoniae; details: for MIC: Klebsiella pneumoniae, CQ1947
# [7] = test system: A. baumannii CQ4322; experiment: Broth microdilution MIC/MBC, glycosides with or without polymyxins; format: cell-based, Acinetobacter baumannii; details: for MIC: Acinetobacter baumannii, CQ4322
# [8] = test system: P. aeruginosa CQ4924; experiment: Broth microdilution MIC, glycosides with or without polymyxins; format: cell-based, Pseudomonas aeruginosa; details: for MIC: Pseudomonas aeruginosa, CQ4924
# [9] = test system: Bacillus anthracis (Sterne, ovine and pathogenic forms), Enterococcus faecalis and Bacillus cereus; details: Gram-positive bacteria; cited from earlier work
# [10] = alone, read-out: MICA (MIC of each compound individually)
# [11] = combination with the lowest FICI
# [12] = compound + colistin, lowest FICI
smiles,measurement,setting,value
"CCCCCCCCCCCCO[C@@H]1C[C@@H](O)[C@H](O)[C@@H](CO)O1 [Compound 4, dodecyl 2-deoxy-α-D-arabino-hexopyranoside]",MIC of colistin in combination with the compound,"[1]; Cpd conc. 0.4 μg/mL, strain A",0.5 µg/mL
same,MIC of colistin in combination with the compound,"[1]; Cpd conc. 0.8 μg/mL, strain A",0.5 µg/mL
same,MIC of colistin in combination with the compound,"[1]; Cpd conc. 3.125 μg/mL, strain A",0.5 µg/mL
same,MIC of colistin in combination with the compound,"[1]; Cpd conc. 6.25 μg/mL, strain A",0.5 µg/mL
same,MIC of colistin in combination with the compound,"[1]; Cpd conc. 12.5 μg/mL, strain A",0.5 µg/mL
same,MIC of colistin in combination with the compound,"[1]; Cpd conc. […], strain A",0.5 µg/mL
same,MIC,"[1]; agent alone, no adjuvant (polymyxin conc. 0), strain A, read-out: MIC",> 100 µg/mL
same,MIC,[1]; [10],> 100 µg/mL
same,MIC of compound in combination with PMB,"[1]; PMB 0.25 μg/mL, strain A",> 100 µg/mL
same,MIC of compound in combination with PMB,"[1]; PMB 0.5 μg/mL, strain A",≤ 0.1 µg/mL
same,MIC of compound in combination with colistin,"[1]; colistin 0.5 μg/mL, strain A",≤ 0.1 µg/mL
same,MICA(A + B) (MIC of compound in combination with colistin),[1]; [11],0.4 mg/L
same,MICB(A + B) (MIC of colistin in combination with compound),[1]; [11],0.5 mg/L
same,Interpretation (of FICI),[1]; compound + colistin,Indifferent (1.0 to 4.0 were indifferent)
same,FICI,[1]; [12],1.002
same,MIC of colistin in combination with the compound,[2]; Cpd conc. 0.4 μg/mL,> 0.5 µg/mL
same,MIC of colistin in combination with the compound,[2]; Cpd conc. 0.8 μg/mL,> 0.5 µg/mL
same,MIC of colistin in combination with the compound,[2]; Cpd conc. 3.125 μg/mL,> 0.5 µg/mL
same,MIC of colistin in combination with the compound,[2]; Cpd conc. 6.25 μg/mL,> 0.5 µg/mL
same,MIC of colistin in combination with the compound,[2]; Cpd conc. 12.5 μg/mL,> 0.5 µg/mL
same,MIC of colistin in combination with the compound,[2]; Cpd conc. […],> 0.5 µg/mL
same,MIC,"[2]; Escherichia coli, NCTC13846, agent alone, no adjuvant (polymyxin conc. 0), read-out: MIC",> 100 µg/mL
same,MIC of compound in combination with PMB,[2]; PMB 0.25 μg/mL,> 100 µg/mL
same,MIC of compound in combination with PMB,[2]; PMB 0.5 μg/mL,> 100 µg/mL
same,MIC of compound in combination with colistin,[2]; colistin 0.25 μg/mL,> 100 µg/mL
same,MIC of compound in combination with colistin,[2]; colistin 0.5 μg/mL,> 100 µg/mL
same,MIC of colistin in combination with the compound,"[3]; Cpd conc. 0.4 μg/mL, strain C",0.5 µg/mL
same,MIC of colistin in combination with the compound,"[3]; Cpd conc. 0.8 μg/mL, strain C",0.5 µg/mL
same,MIC of colistin in combination with the compound,"[3]; Cpd conc. 3.125 μg/mL, strain C",0.5 µg/mL
same,MIC of colistin in combination with the compound,"[3]; Cpd conc. 6.25 μg/mL, strain C",0.5 µg/mL
same,MIC of colistin in combination with the compound,"[3]; Cpd conc. 12.5 μg/mL, strain C",0.5 µg/mL
same,MIC of colistin in combination with the compound,"[3]; Cpd conc. […], strain C",0.5 µg/mL
same,MIC,"[3]; agent alone, no adjuvant (polymyxin conc. 0), strain C, read-out: MIC",> 100 µg/mL
same,MIC,[3]; [10],> 100 µg/mL
same,MIC of compound in combination with PMB,"[3]; PMB 0.25 μg/mL, strain C",> 100 µg/mL
same,MIC of compound in combination with PMB,"[3]; PMB 0.5 μg/mL, strain C",1.6 µg/mL
same,MIC of compound in combination with colistin,"[3]; colistin 0.25 μg/mL, strain C",> 100 µg/mL
same,MIC of compound in combination with colistin,"[3]; colistin 0.5 μg/mL, strain C",≤ 0.1 µg/mL
same,MICA(A + B) (MIC of compound in combination with colistin),[3]; [11],0.4 mg/L
same,MICB(A + B) (MIC of colistin in combination with compound),[3]; [11],0.5 mg/L
same,Interpretation (of FICI),[3]; compound + colistin,Indifferent (1.0 to 4.0 were indifferent)
same,FICI,[3]; [12],1.002
same,MIC of colistin in combination with the compound,"[4]; Cpd conc. 0.4 μg/mL, strain D",0.5 µg/mL
same,MIC of colistin in combination with the compound,"[4]; Cpd conc. 0.8 μg/mL, strain D",0.5 µg/mL
same,MIC of colistin in combination with the compound,"[4]; Cpd conc. 3.125 μg/mL, strain D",0.5 µg/mL
same,MIC of colistin in combination with the compound,"[4]; Cpd conc. 6.25 μg/mL, strain D",0.5 µg/mL
same,MIC of colistin in combination with the compound,"[4]; Cpd conc. 12.5 μg/mL, strain D",0.5 µg/mL
same,MIC of colistin in combination with the compound,"[4]; Cpd conc. […], strain D",0.5 µg/mL
same,MIC,"[4]; agent alone, no adjuvant (polymyxin conc. 0), strain D, read-out: MIC",> 100 µg/mL
same,MIC,[4]; [10],> 100 µg/mL
same,MIC of compound in combination with PMB,"[4]; PMB 0.25 μg/mL, strain D",> 100 µg/mL
same,MIC of compound in combination with PMB,"[4]; PMB 0.5 μg/mL, strain D",≤ 0.1 µg/mL
same,MIC of compound in combination with colistin,"[4]; colistin 0.25 μg/mL, strain D",> 100 µg/mL
same,MIC of compound in combination with colistin,"[4]; colistin 0.5 μg/mL, strain D",≤ 0.1 µg/mL
same,MICA(A + B) (MIC of compound in combination with colistin),[4]; [11],0.4 mg/L
same,MICB(A + B) (MIC of colistin in combination with compound),[4]; [11],0.5 mg/L
same,Interpretation (of FICI),[4]; compound + colistin,Indifferent (1.0 to 4.0 were indifferent)
same,FICI,[4]; [12],1.002
same,MIC of colistin in combination with the compound,"[5]; Cpd conc. 0.4 μg/mL, strain E",0.5 µg/mL
same,MIC of colistin in combination with the compound,"[5]; Cpd conc. 0.8 μg/mL, strain E",0.5 µg/mL
same,MIC of colistin in combination with the compound,"[5]; Cpd conc. 3.125 μg/mL, strain E",0.5 µg/mL
same,MIC of colistin in combination with the compound,"[5]; Cpd conc. 6.25 μg/mL, strain E",0.5 µg/mL
same,MIC of colistin in combination with the compound,"[5]; Cpd conc. 12.5 μg/mL, strain E",0.5 µg/mL
same,MIC of colistin in combination with the compound,"[5]; Cpd conc. […], strain E",0.5 µg/mL
same,MIC,"[5]; agent alone, no adjuvant (polymyxin conc. 0), strain E, read-out: MIC",> 100 µg/mL
same,MIC,[5]; [10],> 100 µg/mL
same,MIC of compound in combination with PMB,"[5]; PMB 0.25 μg/mL, strain E",> 100 µg/mL
same,MIC of compound in combination with PMB,"[5]; PMB 0.5 μg/mL, strain E",1.6 µg/mL
same,MIC of compound in combination with colistin,"[5]; colistin 0.25 μg/mL, strain E",> 100 µg/mL
same,MIC of compound in combination with colistin,"[5]; colistin 0.5 μg/mL, strain E",≤ 0.1 µg/mL
same,MICA(A + B) (MIC of compound in combination with colistin),[5]; [11],0.4 mg/L
same,MICB(A + B) (MIC of colistin in combination with compound),[5]; [11],0.5 mg/L
same,Interpretation (of FICI),[5]; compound + colistin,Indifferent (1.0 to 4.0 were indifferent)
same,FICI,[5]; [12],1.002
same,MIC of colistin in combination with the compound,"[6]; Cpd conc. 0.4 μg/mL, strain F",0.5 µg/mL
same,MIC of colistin in combination with the compound,"[6]; Cpd conc. 0.8 μg/mL, strain F",0.5 µg/mL
same,MIC of colistin in combination with the compound,"[6]; Cpd conc. 3.125 μg/mL, strain F",0.5 µg/mL
same,MIC of colistin in combination with the compound,"[6]; Cpd conc. 6.25 μg/mL, strain F",0.5 µg/mL
same,MIC of colistin in combination with the compound,"[6]; Cpd conc. 12.5 μg/mL, strain F",0.5 µg/mL
same,MIC of colistin in combination with the compound,"[6]; Cpd conc. […], strain F",0.5 µg/mL
same,MIC,"[6]; agent alone, no adjuvant (polymyxin conc. 0), strain F, read-out: MIC",> 100 µg/mL
same,MIC,[6]; [10],> 100 µg/mL
same,MIC of compound in combination with PMB,"[6]; PMB 0.25 μg/mL, strain F",> 100 µg/mL
same,MIC of compound in combination with PMB,"[6]; PMB 0.5 μg/mL, strain F",> 100 µg/mL
same,MIC of compound in combination with colistin,"[6]; colistin 0.25 μg/mL, strain F",> 100 µg/mL
same,MIC of compound in combination with colistin,"[6]; colistin 0.5 μg/mL, strain F",≤ 0.1 µg/mL
same,MICA(A + B) (MIC of compound in combination with colistin),[6]; [11],0.4 mg/L
same,MICB(A + B) (MIC of colistin in combination with compound),[6]; [11],0.5 mg/L
same,Interpretation (of FICI),[6]; compound + colistin,Indifferent (1.0 to 4.0 were indifferent)
same,FICI,[6]; [12],1.002
same,MIC,"[7]; agent alone, no adjuvant (polymyxin conc. 0), strain G, read-out: MIC",> 100 µg/mL
same,MIC,[7]; [10],> 100 µg/mL
same,MIC of colistin in combination with the compound,"[7]; Cpd conc. 0.4 μg/mL, strain G",0.5 µg/mL
same,MIC of colistin in combination with the compound,"[7]; Cpd conc. 0.8 μg/mL, strain G",0.5 µg/mL
same,MIC of colistin in combination with the compound,"[7]; Cpd conc. 3.125 μg/mL, strain G",0.5 µg/mL
same,MIC of colistin in combination with the compound,"[7]; Cpd conc. 6.25 μg/mL, strain G",0.5 µg/mL
same,MIC of colistin in combination with the compound,"[7]; Cpd conc. 12.5 μg/mL, strain G",0.5 µg/mL
same,MIC of colistin in combination with the compound,"[7]; Cpd conc. […], strain G",0.5 µg/mL
same,MIC of compound in combination with PMB,"[7]; PMB 0.25 μg/mL, strain G",> 100 µg/mL
same,MIC of compound in combination with colistin,"[7]; colistin 0.25 μg/mL, strain G",> 100 µg/mL
same,MIC of compound in combination with colistin,"[7]; colistin 0.5 μg/mL, strain G",≤ 0.1 µg/mL
same,MICA(A + B) (MIC of compound in combination with colistin),[7]; [11],0.4 mg/L
same,MICB(A + B) (MIC of colistin in combination with compound),[7]; [11],0.5 mg/L
same,Interpretation (of FICI),[7]; compound + colistin,Indifferent (1.0 to 4.0 were indifferent)
same,FICI,[7]; [12],1.002
same,MIC of colistin in combination with the compound,"[8]; Cpd conc. 0.4 μg/mL, strain H",> 0.5 µg/mL
same,MIC of colistin in combination with the compound,"[8]; Cpd conc. 0.8 μg/mL, strain H",> 0.5 µg/mL
same,MIC of colistin in combination with the compound,"[8]; Cpd conc. 3.125 μg/mL, strain H",> 0.5 µg/mL
same,MIC of colistin in combination with the compound,"[8]; Cpd conc. 6.25 μg/mL, strain H",> 0.5 µg/mL
same,MIC of colistin in combination with the compound,"[8]; Cpd conc. 12.5 μg/mL, strain H",> 0.5 µg/mL
same,MIC of colistin in combination with the compound,"[8]; Cpd conc. […], strain H",> 0.5 µg/mL
same,MIC of compound in combination with PMB,"[8]; PMB 0.25 μg/mL, strain H",> 100 µg/mL
same,MIC of compound in combination with PMB,"[8]; PMB 0.5 μg/mL, strain H",> 100 µg/mL
same,MIC,"[8]; agent alone, no adjuvant (polymyxin conc. 0), strain H, read-out: MIC",> 100 µg/mL
same,MIC,[8]; [10],> 100 µg/mL
same,MIC of compound in combination with colistin,"[8]; colistin 0.25 μg/mL, strain H",> 100 µg/mL
same,MIC,[9],12 to 386 µM
